Measured values from patent US4558059A, “2-Substituted-phenylthiazole derivatives” (priority 1980, dated 1985).
Where two headings read alike, the source gives them in different places.

What was measured:
[1] = tested on: Peptic ulcer due to pyloric ligation; assay: Effect on peptic ulcer due to pyloric ligation; type: in vivo, male rats; settings: intraperitoneal, rats; for Ulcer coefficient: 100 mg/kg, just after ligation, 15 hours; for inhibition in vivo at 100 mg/kg: Rattus norvegicus, ip, 15 h, control ulcer coefficient 42.0 mm^2, read-out: Rate of suppression of ulcer
Method: Just after subjecting to ligation, each of the present compound suspended in an aqueous physiological saline solution was intraperitoneally administered to each rat, the control being injected with an aqueous physiological saline solution. Then, after 15 hours of fasting without taking water, the rats were sacrificed with ether and their stomachs were removed to examine under a microscope for anatomy. The length and width of the thus-formed ulcer in the stomach were determined and expressed by the product (mm^2), and the total sum of the products was represented as the ulcer coefficient.

[2] = tested on: Peptic ulcer due to acetic acid; assay: Effect on peptic ulcer due to acetic acid (duodenal); type: in vivo, male rats; settings: for Ulcer coefficient: orally 3 times a day for 10 days from third day; for inhibition in vivo at 100 mg/kg: Rattus norvegicus, po, 240 h, read-out: Rate of suppression of ulcer
Method: To the control group, only the aqueous physiological saline solution was administered. After the administration was over, the rats were sacrificed with ether, and their duodenum was removed to observe under a microscope for anatomy. The length and width of the thus-formed ulcer were measured and their product (expressed with mm^2) was recorded as the ulcer coefficient.

[3] = Acute toxicity test, oral; settings: mouse, in vivo, p.o., female ICR-mice, mortality for a week, Litchfield-Wilcoxon
Method: Ten animals per group were kept in a transparent polycage at room temperature of 23°±1° C., and RH of 60 to 70%.
After minutely pulverizing each one of the present compounds, the pulverized compound was suspended in an aqueous 5% sodium carboxymethylcellulose solution containing 20% of Tween-80. The aqueous suspension was forcibly orally administered by a metal stomach tube, the dose rate having been adjusted by changing the concentration of the present compound in the aqueous suspension.

peptic ulcer = settings: cited from earlier work
[4] = 100 mg/kg, orally 3 times a day for 10 days, rats, control ulcer coefficient 9.0 mm^2

SMILES	Ulcer coefficient [1]	inhibition in vivo at 100 mg/kg [1]	Ulcer coefficient ([2]; 100 mg/kg, rats)	inhibition in vivo at 100 mg/kg [2, 4]	LD50 at 168 h [3]	Accelerating effect on the ulcer-curing (peptic ulcer; background statement)	Side effects (peptic ulcer; in vivo)	inhibition in vivo at 100 mg/kg [2]	Effectiveness / curative effect ([2]; in words, rats)
CCCNC(=O)c1sc(-c2ccc(OC)c(OC)c2)nc1C [Compound 5, 2-(3,4-dimethoxyphenyl)-4-methylthiazole-5-n-propylcarboxamide]	8.4 mm^2	80%	2.9 mm^2	67.8%	–	–	–	–	–
CCCNC(=O)c1sc(-c2cc(OC)c(OC)c(OC)c2)nc1C [Compound 2, 2-(3,4,5-trimethoxyphenyl)-4-methylthiazole-5-n-propylcarboxamide]	6.3 mm^2	85%	2.7 mm^2	70%	5600 mg/kg	–	–	–	–
CCCNC(=O)c1sc(-c2ccc(OC)cc2)nc1C [Compound 11, 2-(4-methoxyphenyl)-4-methylthiazole-5-n-propylcarboxamide]	8.5 mm^2	79.8%	2.5 mm^2	72.2%	–	–	–	–	–
CCCNC(=O)c1sc(-c2ccccc2OC)nc1C [Compound 8, 2-(2-methoxyphenyl)-4-methylthiazole-5-n-propylcarboxamide]	9.0 mm^2	78.6%	3.2 mm^2	64.4%	–	–	–	–	–
CNC(=O)c1sc(-c2cc(OC)c(OC)c(OC)c2)nc1C [Compound 1, 2-(3,4,5-trimethoxyphenyl)-4-methylthiazole-5-methylcarboxamide]	14.7 mm^2	65%	3.1 mm^2	65.6%	–	–	–	–	–
CNC(=O)c1sc(-c2ccc(OC)c(OC)c2)nc1C [Compound 4, 2-(3,4-dimethoxyphenyl)-4-methylthiazole-5-methylcarboxamide]	11.0 mm^2	73.8%	1.8 mm^2	80%	–	–	–	–	–
CC1(C)[C@@H](OC(=O)CCC(=O)O)CC[C@]2(C)[C@H]3C(=O)C=C4[C@@H]5C[C@@](C)(C(=O)O)CC[C@]5(C)CC[C@@]4(C)[C@]3(C)CC[C@@H]12 [carbenoxolone]	–	–	–	–	–	excellent accelerating effect on the ulcer-curing	aldosterone-like side effects to cause hypertension and weakening of muscular function	–	–
CNC(=O)c1sc(-c2ccccc2OC)nc1C [Compound 7, 2-(2-methoxyphenyl)-4-methylthiazole-5-methylcarboxamide]	8.6 mm^2	79.5%	1.7 mm^2	81.1%	–	–	–	–	–
CNC(=O)c1sc(-c2ccc(OC)cc2)nc1C [Compound 10, 2-(4-methoxyphenyl)-4-methylthiazole-5-methylcarboxamide]	6.4 mm^2	84.8%	3.1 mm^2	65.6%	–	–	–	–	–
COc1ccc(-c2nc(C)c(C(N)=O)s2)cc1OC [Compound 3, 2-(3,4-dimethoxyphenyl)-4-methylthiazole-5-carboxamide]	0.8 mm^2	98.1%	1.3 mm^2	–	–	–	–	85.6%	–
COc1ccc(-c2nc(C)c(C(N)=O)s2)cc1 [Compound 9, 2-(4-methoxyphenyl)-4-methylthiazole-5-carboxyamide]	0.9 mm^2	97.9%	2.0 mm^2	77.8%	–	–	–	–	–
COc1ccccc1-c1nc(C)c(C(N)=O)s1 [Compound 6, 2-(2-methoxyphenyl)-4-methylthiazole-5-carboxamide]	1.2 mm^2	97.1%	2.1 mm^2	76.7%	–	–	–	–	–
CC(C)=CCCC(C)=CCCC(C)=CCCC(=O)OCC=C(C)CCC=C(C)C [Gefarnate, 3,7dimethyl-2,6-octadienyl 5,9,13trimethyl-4,8,12-tetradecatrienoate, reference compound]	36.9 mm^2	12.1%	7.2 mm^2	20%	–	–	–	–	only a slight effectiveness is recognized
